The structures appear in SMILES notation.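 96-well plates; 48 h exposure; 5 concentrations. Endpoints by linear interpolation between flanking doses. Not reached: highest tested concentration assigned. At the GI50, growth is halved. TGI: concentration producing complete growth inhibition.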 Where a SMILES comes first, the peptide text is derived from it. Bridges are numbered along the chain shown (N, C = ends). Roman numbers before positions name the chains, in order. [ ]: non-standard residue; d: D form. The star is where a group is joined. Quinoxaline2carbonyl = O=C(c1cnc2ccccc2n1)*; NMeV = CN[CH](C(=O)O)C(C)C; NMeC = CN[CH](CS)C(=O)O A value given as a limit tells only on which side of the number the result lay.

Test systems include MDA-N; M19-MEL melanoma; SNB-78 CNS; RXF-631 renal; HOP-18 NSCLC; DLD-1 colon; DMS 273 small cell lung; XF 498 CNS; DMS 114 small cell lung.
What all share (test): NCI-60 cell line screen, 48 h

In the assay with MDA-N, `CC1(C)OC2C(=O)C=C(COCc3ccccc3)C2O1` (configuration not stated) gave a TGI greater than 100 µM.

`CN(CC(N)=O)C(=O)N(CCCl)N=O` came in with a TGI in the assay on MDA-N greater than 100 µM.

For the molecule `CN(C)CC1CCCC1=O` (configuration not stated), the TGI was found to be 2.33 µM in the assay with M19-MEL melanoma; 6.12 µM in the assay with SNB-78 CNS; 0.377 µM in the assay on RXF-631 renal; 3.16 µM in the assay with HOP-18 NSCLC; 1.03 µM in the assay on DLD-1 colon; 3.28 µM in the assay with DMS 273 small cell lung. Moreover, the values for the TGI in the assay on XF 498 CNS and in the assay with DMS 114 small cell lung were 2.11 µM and 2.33 µM, respectively.

For `CCCCCCCCCCCCCP(=O)(O)NCC(N)=O`, the TGI in the assay on M19-MEL melanoma is greater than 100 µM; with RXF-631 renal, greater than 100 µM; in the assay with HOP-18 NSCLC it was 86.1 µM; in the assay with DLD-1 colon, greater than 100 µM; in the assay with XF 498 CNS, greater than 100 µM; in the assay with DMS 114 small cell lung, greater than 100 µM.

As to `C=C1CCC2[C@@H](CCC3[C@]2(C)CCC[C@]3(C)C(=O)OC)[C@@H]1CC=O` (some centres not stated), the TGI with M19-MEL melanoma was 49 µM; with SNB-78 CNS, greater than 100 µM; with RXF-631 renal, greater than 100 µM; with HOP-18 NSCLC, 86 µM; in the assay on DLD-1 colon it was greater than 100 µM; with DMS 273 small cell lung, 50.1 µM. Also, the TGI was determined as 61.6 µM in the assay with XF 498 CNS and 53.2 µM with DMS 114 small cell lung. Also, the GI50 with RXF-631 renal is 44.9 µM.

As to `COc1ccc(C(Cl)=C(c2ccc(OCCN(C)C)cc2)c2ccc(OCCN(C)C)cc2)cc1`, the TGI in the assay with SNB-78 CNS amounted to 3.94 µM; with RXF-631 renal it was 0.966 µM; in the assay with DLD-1 colon, 11.3 µM; with DMS 273 small cell lung, 4.17 µM; in the assay on XF 498 CNS, 2.81 µM; with DMS 114 small cell lung, 3.06 µM.

In the case of `O=C(NC1CCCC1=O)c1ccccc1` (configuration not stated), the TGI in the assay on M19-MEL melanoma, in the assay with SNB-78 CNS, in the assay on RXF-631 renal, in the assay with DLD-1 colon, with DMS 273 small cell lung and in the assay on XF 498 CNS was greater than 100 µM in each case. The same molecule gave a TGI in the assay with DMS 114 small cell lung greater than 100 µM.

As to `Cc1cc(N(CCC#N)CCC#N)ccc1/C=C1/N=C(c2ccccc2)N(N)C1=O`, the TGI in the assay on M19-MEL melanoma, in the assay on DLD-1 colon, in the assay on DMS 273 small cell lung, with XF 498 CNS and with DMS 114 small cell lung was greater than 100 µM throughout.

For `N#Cc1ccc(N=Cc2c([O-])ccc3ccccc23)cc1.[C-]#[O+].[C-]#[O+].[Ir]`, the GI50 in the assay with HOP-18 NSCLC was 2.74 µM; with DLD-1 colon, 1.96 µM; with XF 498 CNS it was 2.36 µM; in the assay with DMS 114 small cell lung it was 1.69 µM. Moreover, the TGI with HOP-18 NSCLC worked out at 8.51 µM; with DLD-1 colon it was 4.09 µM; in the assay with XF 498 CNS, 12 µM; in the assay with DMS 114 small cell lung it was 3.66 µM.

Consider `COc1cc2nc(NCCCCCNC(=O)c3ccco3)nc(N)c2cc1OC`, for which the TGI with M19-MEL melanoma is 61.4 µM; in the assay with SNB-78 CNS it was 89.5 µM; with RXF-631 renal it was 74.1 µM; in the assay on HOP-18 NSCLC, greater than 100 µM; with DMS 273 small cell lung, greater than 100 µM; in the assay with DMS 114 small cell lung it was 40.6 µM.

As to `CN1COc2c(n(C)c(=O)[nH]c2=O)C1`, the TGI in the assay on M19-MEL melanoma, in the assay with SNB-78 CNS, in the assay with HOP-18 NSCLC, in the assay on DLD-1 colon, with DMS 273 small cell lung and with XF 498 CNS was greater than 100 µM in each case. The molecule also yielded a TGI in the assay on DMS 114 small cell lung greater than 100 µM.

`CN(C)CCC(/C=C/c1ccccc1)=N\Nc1ccc(Cl)cc1Cl`: the TGI in the assay with M19-MEL melanoma was found to be 29 µM; with SNB-78 CNS, 26.9 µM; in the assay on HOP-18 NSCLC, 21.9 µM; with DLD-1 colon, 27.9 µM; in the assay on DMS 273 small cell lung, 25.9 µM; with DMS 114 small cell lung, 29.5 µM.

`N/N=C1\CC(=O)NC(=O)N1` registered a TGI in the assay on MDA-N greater than 100 µM.

In the assay on MDA-N, `O=C(O)COc1c(Cl)cc(Cl)c2cccnc12` showed a TGI greater than 100 µM.

In the assay on MDA-N, `Cn1cncc1CC1COC(=O)C1C(O)c1ccccc1` (configuration not stated) had a TGI greater than 100 µM.

`CSC(=S)N/N=C(\C)c1cccc(C)n1`: in the assay on MDA-N, the TGI is greater than 90 µM.

With `COC(CN1C=C(Sc2ccccc2)CC1)OC`, the TGI in the assay on M19-MEL melanoma was 97.7 µM; in the assay with SNB-78 CNS, greater than 100 µM; in the assay on HOP-18 NSCLC it was greater than 100 µM; in the assay on DLD-1 colon it was greater than 100 µM; with XF 498 CNS it was 66.3 µM; with DMS 114 small cell lung it was 65.4 µM.

Regarding `COC(=O)C(C)(C)N=CN(C)C`, the TGI with M19-MEL melanoma, with SNB-78 CNS, in the assay with RXF-631 renal, in the assay on HOP-18 NSCLC, with DLD-1 colon and in the assay on DMS 273 small cell lung was greater than 100 µM throughout. Besides, the TGI in the assay on XF 498 CNS and with DMS 114 small cell lung was greater than 100 µM in each case.

In the case of `CC1NC(=O)C(NC(=O)c2cnc3ccccc3n2)COC(=O)C(C(C)C)N(C)C(=O)C2CSSCC(C(=O)N(C)C(C(C)C)C(=O)OCC(NC(=O)c3cnc4ccccc4n3)C(=O)NC(C)C(=O)N2C)N(C)C1=O` (configuration not stated) (I: Quinoxaline2carbonyl-SA[NMeC][NMeV] / II: Quinoxaline2carbonyl-SA[NMeC][NMeV]; ester I:1-II:C, I:C-II:1; disulfide I:3-II:3; configuration not given here), in the assay on MDA-N, the TGI was less than 0.01 µM.

With `c1ccc2c3c([nH]c2c1)C1CCCN1CC3` (configuration not stated), the TGI in the assay with MDA-N was greater than 10 µM.

As to `CCC1(O)C(=O)OCc2c1cc1n(c2=O)Cc2cc3cc(N)ccc3nc2-1` (configuration not stated), the TGI in the assay with MDA-N stood at 0.285 µM.

As to `c1ccc(P(=Nc2ccccc2N=P(c2ccccc2)(c2ccccc2)c2ccccc2)(c2ccccc2)c2ccccc2)cc1`, the TGI in the assay with M19-MEL melanoma is 12.1 µM; in the assay with SNB-78 CNS, 19.9 µM; in the assay with RXF-631 renal, 6.64 µM; in the assay with HOP-18 NSCLC, 0.844 µM; in the assay with DLD-1 colon, 13 µM; in the assay on DMS 273 small cell lung, 10 µM. The TGI in the assay with XF 498 CNS was 0.543 µM; in the assay with DMS 114 small cell lung, 2.68 µM.

Turning to `CC1(C)C2CCC13CS(=O)(=O)N1O[C@]13C(=O)O2` (some centres not stated), the TGI with M19-MEL melanoma, with SNB-78 CNS, in the assay with RXF-631 renal, in the assay with HOP-18 NSCLC, in the assay on DLD-1 colon and with DMS 114 small cell lung was greater than 100 µM throughout.

In the case of `C[CH2][Pb]([CH2]C)([CH2]C)[O]C(=O)c1ccc2ccccc2n1`, in the assay with MDA-N, the GI50 is greater than 10 µM and the TGI was greater than 10 µM.
